Data published in patent publication US12605423B2, “Peptide inhibitors targeting methyltransfer mechanism of SARS-CoV-2” (United Arab Emirates University, priority 2021, dated 2026).
In brackets after ≈: the same amount, converted by molar mass. Entries after “also recorded” stand apart in the source; their conditions may differ.

Tests used:
IL-6 = type: cell-based; conditions: 10 μM peptide, versus PBS control; for IL-6 induction: NCIH1792 (H1792) human lung cells
in vitro = conditions: human, Cytotoxic Concentration (CC50), Caco-2 cells

Row | Compound | stimulation of the intrinsic secretion of IL-6 (IL-6; NCIH1792 (H1792) cells) | IL-6 induction (IL-6) | CC50 (in vitro)
1 | CC[C@H](C)[C@H](NC(=O)[C@H](Cc1c[nH]cn1)NC(=O)[C@H](CS)NC(=O)[C@H](CCCNC(=N)N)NC(=O)[C@H](CS)NC(=O)[C@H](Cc1ccc(O)cc1)NC(=O)[C@H](CC(C)C)NC(=O)[C@H](CS)NC(=O)[C@H](CS)NC(=O)[C@H](CO)NC(=O)[C@H](C)NC(=O)CNC(=O)CNC(=O)[C@H](Cc1ccccc1)NC(=O)CNC(=O)[C@H](CO)NC(=O)CNC(=O)[C@H](CCCNC(=N)N)NC(=O)[C@H](CCCNC(=N)N)NC(=O)[C@H](CCCNC(=N)N)NC(=O)[C@H](CCC(N)=O)NC(=O)[C@H](CCCNC(=N)N)NC(=O)[C@H](CCCNC(=N)N)NC(=O)[C@H](CCCCN)NC(=O)[C@H](CCCCN)NC(=O)[C@H](CCCNC(=N)N)NC(=O)CNC(=O)[C@H](Cc1ccc(O)cc1)NC(C)=O)C(=O)N[C@@H](CC(=O)O)C(=O)N[C@@H](Cc1c[nH]cn1)C(=O)N1CCC[C@H]1C(=O)N[C@@H](CC(N)=O)C(=O)N1CCC[C@H]1C(=O)N[C@@H](CCCCN)C(=O)NCC(=O)N[C@@H](Cc1ccccc1)C(=O)N[C@@H](CS)C(=O)N[C@@H](CC(=O)O)C(=O)N[C@@H](CC(C)C)C(=O)N[C@@H](CCCCN)C(=O)NCC(=O)N[C@@H](CCCCN)C(=O)N[C@@H](Cc1ccc(O)cc1)C(N)=O [Peptide P1] | more than 4 fold | strongly increased IL-6 secretion; also recorded: profound induction of IL-6 secretion | 11 µg/mL (≈ 2.19 µM)
2 | YGRKKRRQRRRGSG [TAT sequence, reference compound] | – | no increase in IL-6 | –
